The record followed here is article PMC8950995, “Identification and Functional Analysis of Glutathione S-Transferases from Sitophilus zeamais in Olfactory Organ” (Insects, 2022).

The assay deals with T1, SzeaGSTd1 (Sitophilus zeamais, UniProt A0A8F0D7V2).
T1 sequence (A0A8F0D7V2 22-247): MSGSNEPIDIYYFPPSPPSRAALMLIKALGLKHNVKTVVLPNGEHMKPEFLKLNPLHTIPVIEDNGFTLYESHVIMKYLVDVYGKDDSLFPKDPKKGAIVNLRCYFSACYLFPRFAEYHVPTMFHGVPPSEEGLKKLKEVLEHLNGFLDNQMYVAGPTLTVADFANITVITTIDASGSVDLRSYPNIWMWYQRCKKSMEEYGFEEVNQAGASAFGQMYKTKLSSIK
As to the kind of experiment: GSH conjugation, absorbance at […] nm, Michaelis-Menten. Format: biochemical. The settings on record: 1 mM GSH, 100 mM phosphate pH 7.2.

Consider `O=[N+]([O-])c1ccc(Cl)c([N+](=O)[O-])c1` [CDNB, 1-chloro-2,4-dinitrobenzene], for which the Michaelis constant (Km) stood at 420 ± 40 µM.
